What follows are molecules tested on NL4-3 strain of HIV-1 (assay: HIV-1 replication inhibition: cyto-protection of MT4 cells infected with NL4-3 virus (CellTiter-Glo viability assay)). Conditions: Human immunodeficiency virus 1, NL43, 120 h, concentration leading to 50% of cyto-protection, 5 days incubation.
Assay type: cell-based
Description: The antiviral activity, particularly against HIV, of compounds according to the invention is evaluated by the protocol described below.
Preparation of Virus Stock of the NL4-3 Strain of HIV-1
The virus was prepared as described in Lopez et al (Lopez et al, Proc Natl Acad Sci USA., 2006, 103(40):14947-52, by transfecting 2×10^6 293 T cells (CRL-1573, ATCC) with following modifications: 6 μg of NL4-3 proviral DNA molecular clone were mixed with Fugene 6 transfection reagent from Roche, and used according to manufacturer's instructions. Forty eight hours later, transfected cell supernatants were harvested, filtered through 0.45-μm-pore-size filters, quantified for HIV-1 p24 antigen by using a Innotest HIV antigen mAb assay (Ingen) according to manufacturer's instructions, and used in infection experiments.
Preparation of Compounds:
Serial dilutions of compounds to be tested were prepared in complete RPMI medium from 10 mM DMSO stock solutions, and distributed in a volume of 20 µl in 96 well Falcon 353072 Microtest™ tissue culture plate, in order to get 0.5% DMSO final concentration in each well, after the addition of infected cells. Control wells contained also 0.5% DMSO final concentration but no compound.
MT4 cells (from the NIH AIDS Research and Reference Reagent Program) in RPMI complete medium were counted (10×10^6 cells per well in Falcon 353047 Multiwell™ 24 well) and infected for 2 hours at 37°, at a multiplicity of infection (moi) of 0.0001-0.00001. Cells were then centrifuged 3 min at 3000 rpm, and washed two times in 1 ml PBS to remove viruses that have not entered in cells. Infected cells were resuspended in complete RPMI at 1.25×10^6 cells/ml, and 80 µl of infected cells were distributed in each well containing compounds to be tested or control wells. The plates were then incubated at 37° for 5 days.
Assay Used to Measure the Inhibition of HIV Replication by the Compounds
(according to Gregg S. Jones et al., Antimicrobial Agents and Chemotherapy, 2009, 53 (3): 1194-1203).
After 5 days of incubation, […] of CellTiter-Glo reagent (Promega Biosciences, Inc., Madison Wis., USA) were added to each well. Cell lysis was carried out at room temperature during 10 min, 150 μl of lysates were transferred in Packard Optiplate 96 well, and luminescence was read on a Fluoroskan (Thermo Scientific).

Row | SMILES | EC50 [nM]
1 | Cc1sc(-c2cccc(C(N)=O)c2)c(C2=CCC(C)(C)CC2)c1C(OC(C)(C)C)C(=O)O (stereo not drawn) [Example 31, 2-(tert-butoxy)-2-[4-(4,4-dimethylcyclohex-1-en-1-yl)-2-methyl-5-(aminocarbonylphen-3-yl)thiophen-3-yl]acetic acid] | 40
2 | Cc1sc(-c2ccc(S(N)(=O)=O)cc2)c(C2=CCC(C)(C)CC2)c1C(OC(C)(C)C)C(=O)O (stereo not drawn) [Example 32, 2-(tert-butoxy)-2-[4-(4,4-dimethylcyclohex-1-en-1-yl)-2-methyl-5-(benzenesulfonamide-4-yl)thiophen-3-yl]acetic acid] | 430
3 | CC(=O)Nc1ccc(-c2sc(C)c(C(OC(C)(C)C)C(=O)O)c2C2=CCC(C)(C)CC2)cc1 (stereo not drawn) [Example 33, 2-(tert-butoxy)-2-[4-(4,4-dimethylcyclohex-1-en-1-yl)-2-methyl-5-(acetamidophen-4-yl)thiophen-3-yl]acetic acid] | 230
4 | Cc1sc(-c2ccc(=O)n(Cc3ccccc3)c2)c(C2=CCC(C)(C)CC2)c1C(OC(C)(C)C)C(=O)O (stereo not drawn) [Example 34] | 750
5 | CCCn1cc(-c2sc(C)c(C(OC(C)(C)C)C(=O)O)c2C2=CCC(C)(C)CC2)ccc1=O (stereo not drawn) [Example 35] | 340
6 | CCCNC(=O)c1ccc(-c2sc(C)c(C(OC(C)(C)C)C(=O)O)c2C2=CCC(C)(C)CC2)cc1 (stereo not drawn) [Example 36, 2-(tert-butoxy)-2-[4-(4,4-dimethylcyclohex-1-en-1-yl)-2-methyl-5-[4-(propylcarbamoyl)phenyl]thiophen-3-yl]acetic acid] | 100
7 | Cc1sc(-c2ccc(=O)n(CC3CC3)c2)c(C2=CCC(C)(C)CC2)c1C(OC(C)(C)C)C(=O)O (stereo not drawn) [Example 37] | 320
8 | CC(C)(C)OC(C(=O)O)c1c(CO)sc(-c2ccncc2)c1-c1ccc2c(c1)CCCO2 (stereo not drawn) [Example 38, 2-(tert-butoxy)-2-[4-(3,4-dihydro-2H-1-benzopyran-6-yl)-2-(hydroxymethyl)-5-(pyridin-4-yl)thiophen-3-yl]acetic acid] | 2300
9 | Cc1sc(-c2ccncc2)c(-c2cc(F)c3c(c2C)CCCO3)c1C(OC(C)(C)C)C(=O)O (stereo not drawn) [Example 39, 2-(tert-butoxy)-2-[4-(8-fluoro-5-methyl-3,4-dihydro-2H-1-benzopyran-6-yl)-2-methyl-5-(pyridin-4-yl)thiophen-3-yl]acetic acid] | 730
10 | Cc1sc(-c2ccncc2)c(-c2cc(F)c3c(c2)CCCO3)c1C(OC(C)(C)C)C(=O)O (stereo not drawn) [Example 40, 2-(tert-butoxy)-2-[4-(8-fluoro-3,4-dihydro-2H-1-benzopyran-6-yl)-2-methyl-5-(pyridin-4-yl)thiophen-3-yl]acetic acid] | 360
11 | CNC(=O)c1cccc(-c2sc(C)c(C(OC(C)(C)C)C(=O)O)c2C2=CCC(C)(C)CC2)c1 (stereo not drawn) [Example 41, 2-(tert-butoxy)-2-[4-(4,4-dimethylcyclohex-1-en-1-yl)-2-methyl-5-(methylaminocarbonylphen-3-yl)thiophen-3-yl]acetic acid] | 50
12 | CCCNC(=O)c1cccc(-c2sc(C)c(C(OC(C)(C)C)C(=O)O)c2C2=CCC(C)(C)CC2)c1 (stereo not drawn) [Example 42, 2-(tert-butoxy)-2-[4-(4,4-dimethylcyclohex-1-en-1-yl)-2-methyl-5-[3-(propylcarbamoyl)phenyl]thiophen-3-yl]acetic acid] | 40
13 | Cc1sc(-c2ccccn2)c(C2=CCC(C)(C)CC2)c1C(OC(C)(C)C)C(=O)O (stereo not drawn) [Example 43, 2-(tert-butoxy)-2-[4-(4,4-dimethylcyclohex-1-en-1-yl)-2-methyl-5-(pyridin-2-yl)thiophen-3-yl]acetic acid] | 440
14 | Cc1sc(-c2ccccc2)c(C2=CCC(C)(C)CC2)c1C(OC(C)(C)C)C(=O)O (stereo not drawn) [Example 44, 2-(tert-butoxy)-2-[4-(4,4-dimethylcyclohex-1-en-1-yl)-2-methyl-5-phenylthiophen-3-yl]acetic acid] | 230
15 | Cc1sc(-c2nccs2)c(C2=CCC(C)(C)CC2)c1C(OC(C)(C)C)C(=O)O (stereo not drawn) [Example 45, 2-(tert-butoxy)-2-[4-(4,4-dimethylcyclohex-1-en-1-yl)-2-methyl-5-(1,3-thiazol-2-yl)thiophen-3-yl]acetic acid] | 440
16 | Cc1ccc(-c2sc(C)c(C(OC(C)(C)C)C(=O)O)c2C2=CCC(C)(C)CC2)nc1 (stereo not drawn) [Example 46, 2-(tert-butoxy)-2-[4-(4,4-dimethylcyclohex-1-en-1-yl)-2-methyl-5-(5-methylpyridin-2-yl)thiophen-3-yl]acetic acid] | 450
17 | Cc1cccnc1-c1sc(C)c(C(OC(C)(C)C)C(=O)O)c1C1=CCC(C)(C)CC1 (stereo not drawn) [Example 47, 2-(tert-butoxy)-2-[4-(4,4-dimethylcyclohex-1-en-1-yl)-2-methyl-5-(3-methylpyridin-2-yl)thiophen-3-yl]acetic acid] | 510
18 | Cc1sc(-c2ccncc2)c(C2=CCC(CF)(CF)CC2)c1C(OC(C)(C)C)C(=O)O (stereo not drawn) [Example 48, [4-(4,4-bis-fluoromethyl-cyclohex-1-enyl)-2-methyl-5-pyridin-4-yl-thiophen-3-yl]-tert-butoxy-acetic acid] | 130
19 | Cc1sc(-c2ncccn2)c(C2=CCC(C)(C)CC2)c1C(OC(C)(C)C)C(=O)O (stereo not drawn) [Example 49, 2-(tert-butoxy)-2-{2-methyl-4-[4,4-dimethylcyclohex-1-en-1-yl]-5-(Pyrimidin-2-yl)thiophen-3-yl}acetic acid] | 990
20 | Cc1sc(-n2cccn2)c(C2=CCC(C)(C)CC2)c1C(OC(C)(C)C)C(=O)O (stereo not drawn) [Example 50, 2-(tert-butoxy)-2-[4-(4,4-dimethylcyclohex-1-en-1-yl)-2-methyl-5-(1H-pyrazol-1-yl)thiophen-3-yl]acetic acid] | 770
21 | CCCc1cccc(-c2sc(C)c(C(OC(C)(C)C)C(=O)O)c2C2=CCC(C)(C)CC2)n1 (stereo not drawn) [Example 51, 2-(tert-butoxy)-2-{2-methyl-4-[4,4-dimethylcyclohex-1-en-1-yl]-5-(6-(n-propyl)pyridin-2-yl)thiophen-3-yl}acetic acid] | 270
22 | CCCc1ccc(-c2sc(C)c(C(OC(C)(C)C)C(=O)O)c2C2=CCC(C)(C)CC2)nc1 (stereo not drawn) [Example 52, 2-(tert-butoxy)-2-{2-methyl-4-[4,4-dimethylcyclohex-1-en-1-yl]-5-(5-(n-propyl)pyridin-2-yl)thiophen-3-yl}acetic acid] | 930
23 | Cc1sc(-c2ccncc2)c(C2=CCC(C)(CF)CC2)c1C(OC(C)(C)C)C(=O)O (stereo not drawn) [Example 53, [4-(4-fluoromethyl-4-methylcyclohex-1-enyl)-2-methyl-5-pyridin-4-yl-thiophen-3-yl]-tert-butoxy-acetic acid] | 70
24 | Cc1sc(-c2cscn2)c(C2=CCC(C)(C)CC2)c1C(OC(C)(C)C)C(=O)O (stereo not drawn) [Example 54, 2-(tert-butoxy)-2-{2-methyl-4-[4,4-dimethylcyclohex-1-en-1-yl]-5-(thiazol-4-yl)thiophen-3-yl}acetic acid] | 470
25 | Cc1sc(-c2ccccc2C(N)=O)c(C2=CCC(C)(C)CC2)c1C(OC(C)(C)C)C(=O)O (stereo not drawn) [Example 55, 2-(tert-butoxy)-2-{2-methyl-4-[4,4-dimethylcyclohex-1-en-1-yl]-5-(carboxamidephen-2-yl)thiophen-3-yl}acetic acid] | 90
26 | CNC(=O)c1ccccc1-c1sc(C)c(C(OC(C)(C)C)C(=O)O)c1C1=CCC(C)(C)CC1 (stereo not drawn) [Example 56, 2-(tert-butoxy)-2-{2-methyl-4-[4,4-dimethylcyclohex-1-en-1-yl]-5-(N-methylbenzamide-2-yl)thiophen-3-yl}acetic acid] | 120
27 | Cc1sc(C2=CCCCC2)c(C2=CCC(C)(C)CC2)c1C(OC(C)(C)C)C(=O)O (stereo not drawn) [Example 57, 2-(tert-butoxy)-2-[4-(4,4-dimethylcyclohex-1-en-1-yl)-5-(cyclohexen-1-yl)-2-methylthiophen-3-yl]acetic acid] | 1200
28 | Cc1sc(-c2ccsn2)c(C2=CCC(C)(C)CC2)c1C(OC(C)(C)C)C(=O)O (stereo not drawn) [Example 58, 2-(tert-butoxy)-2-{2-methyl-4-[4,4-dimethylcyclohex-1-en-1-yl]-5-(isothiazol-3-yl)thiophen-3-yl}acetic acid] | 110
29 | Cc1sc(C2=CCCC2)c(C2=CCC(C)(C)CC2)c1C(OC(C)(C)C)C(=O)O (stereo not drawn) [Example 59, 2-(tert-butoxy)-2-[4-(4,4-dimethylcyclohex-1-en-1-yl)-5-(cyclopenten-1-yl)-2-methylthiophen-3-yl]acetic acid] | 670
30 | CC(C)(C)OC(C(=O)O)c1c(C(F)(F)F)sc(-c2ccccc2)c1-c1ccc2c(c1)CCCO2 (stereo not drawn) [Example 60, 2-(tert-butoxy)-2-[4-(3,4-dihydro-2H-1-benzopyran-6-yl)-5-phenyl-2-(trifluoromethyl)thiophen-3-yl]acetic acid] | 500

Source: patent US9562033B2, “Inhibitors of viral replication, their process of preparation and their therapeutical uses” (LABORATOIRE BIODIM, priority 2012, dated 2017)
